{
  "source": "patent US11701355B2",
  "about": "“Levosimendan for treating pulmonary hypertension with heart failure with preserved ejection fraction (PH-HFpEF)” (Tenax Therapeutics, Inc., priority 2019, dated 2023)",
  "key": {"PH-HFpEF patients": {"system": "PH-HFpEF patients", "assay": "HELP Study double-blind phase: weekly 24-hour infusions for 5 weeks vs placebo, assessment at Week 6", "format": "in vivo, human", "details": "for mean pulmonary arterial pressure (mPAP) / right atrial pressure (RAP) / six-minute walk test distance: Week 6, compared with placebo; for pulmonary capillary wedge pressure (PCWP): baseline vs Week 6, compared with placebo", "experimental": "Study drug is administered via i.v. infusion over 24 hours weekly through Week 5 via a PICC line. Infusions (Week 2-5) are done in the subject's home by a study nurse. Patients return to the study site for a visit between the Week 3 and Week 4 infusions for assessment of subject safety/response and need for dose adjustment. Each subject is to return on Week 6 for assessment of efficacy and safety on study drug. A right heart catheter will be inserted to obtain hemodynamic measurements at rest and exercise at baseline, the following day after the lead-in 24-hour infusion, and during Week 6.\nDuring the Lead-in phase of the study, a sufficient number of subjects are enrolled and receive levosimendan to identify a total of 36 ‘responders.’ The levosimendan ‘responders’ are randomized 1:1, levosimendan or placebo, for the double-blind phase of the study.\nDuring the Double-blind phase, study drug concentrated solution (2.5 mg/mL), levosimendan or placebo, is mixed with diluent and administered via a PICC line as weekly infusions at 0.075 μg/kg/min for 24 hours. Patients undergo a dose escalation at Week 4 and 5 (0.10 μg/kg/min for 24 hours) unless there has been a meaningful change in blood pressure or heart rate. Infusion rates may be reduced to 0.05 μg/kg/min if the higher dose is not well-tolerated at any time during the initial 5 weeks.\nVisits at Weeks 2, 3, 4, and 5 are performed within +/−48 hours of the scheduled visit. Visits for Weeks 2-5 are calculated based on the date of the Lead-in infusion. These visits are performed at the subject's home with the aid of the home health care nurse. The home health care nurse remains with the patient for the first 2-3 hours of the infusion to ensure patient safety. The home health care nurse visits the patient again at 24 hours to stop the infusion and assess the patient's status. During this visit, the following procedures are performed: Record any changes in procedures, prescription and non-prescription drugs, vitamins, and dietary or herbal supplements; measure vital signs prior to starting the infusion, after the first 2 hours (+/−30 min), and after 24 hours (+/−30 min); assess adverse events and study drug administration. At Week 5, all patients are given a new cardiac monitoring sensor to wear on their chest to measure cardiac rhythm, as was done during Screening. The patch is applied prior to (<1 hour) the 24-hour infusion, remain monitoring the patient for a minimum of 72 hours and returned to the investigational site at the Week 6 visit.\nVisits at Week 6 should be performed 3-6 days following completion of the Week 5 infusion. During this visit, the following procedures are performed: record any changes in procedures, prescription and non-prescription drugs, vitamins, and dietary or herbal supplements; measure vital signs (BP, PR, respiratory rate, temperature); hematology and clinical chemistry blood samples; conduct 12-lead ECG; echocardiogram within +/−72 hours of the Week 6 visit; right heart catheterization at rest and with exercise; QOL assessment; Child-Pugh Class, NYHA Functional Class, assess adverse events, 6 minute walk test; and pharmacokinetic sampling (sample to be taken prior to enrollment in Open-Label phase.\nThe 6-minute walk test (6MWT) is performed at approximately the same time of day at each study visit after the Baseline Visit and ideally, one of the first assessments to be performed. The ECHO and subject questionnaire are performed after the 6MWT has been completed. The 6MWT is performed using the methods described in the American Thoracic Society (ATS) Statement: Guidelines for the Six-Minute Walk Test. The test is performed at approximately the same time of day when assessed and by the same evaluator whenever possible."}, "[1]": {"system": "patients afflicted with pulmonary hypertension", "details": "chronic dosing over an 8-week period; cited from earlier work"}, "[2]": {"details": "parent drug, intravenous infusion; cited from earlier work"}, "[3]": {"details": "chronic (weekly for 5 weeks) administration, week 6"}, "[4]": {"details": "weekly 24-hour infusions, listed as Levosimendan"}, "[5]": {"details": "weekly 24-hour infusions, compared with placebo"}},
  "note": "“Also recorded” adds a separate entry of the source.",
  "data": [
    {"smiles": "C[C@@H]1CC(=O)NN=C1c1ccc(NN=C(C#N)C#N)cc1", "note": "[levosimendan, Levosimendan]", "values": [
      {"measurement": "Cardiac Index (CI)", "setting": "PH-HFpEF patients; [3]", "result": "unchanged at week 6"},
      {"measurement": "pulmonary vascular resistance (PVR)", "setting": "PH-HFpEF patients; [3]", "result": "unchanged at week 6"},
      {"measurement": "pulmonary vascular resistance (PVR)", "setting": "PH-HFpEF patients; chronic (weekly for 5 weeks) administration, week 6, listed as Levosimendan", "result": "did not decrease"},
      {"measurement": "safety and tolerability", "setting": "PH-HFpEF patients; weekly 24-hour dosing", "result": "safe and well tolerated"},
      {"measurement": "mean pulmonary arterial pressure (mPAP)", "setting": "PH-HFpEF patients; weekly 24-hour infusions", "result": "significantly greater reduction; also recorded: decrease"},
      {"measurement": "right atrial pressure (RAP)", "setting": "PH-HFpEF patients; weekly 24-hour infusions", "result": "decrease; also recorded: significantly greater reduction"},
      {"measurement": "six-minute walk test distance", "setting": "PH-HFpEF patients; weekly 24-hour infusions", "result": "significantly increased; also recorded: increase; also recorded: statistically significant improvement"},
      {"measurement": "mean pulmonary arterial pressure (mPAP)", "setting": "PH-HFpEF patients; [4]", "result": "reduces"},
      {"measurement": "right atrial pressure (RAP)", "setting": "PH-HFpEF patients; [4]", "result": "improves"},
      {"measurement": "six-minute walk test distance", "setting": "PH-HFpEF patients; [4]", "result": "improves"},
      {"measurement": "pulmonary capillary wedge pressure (PCWP)", "setting": "PH-HFpEF patients; weekly 24-hour infusions", "result": "significant vs placebo; also recorded: greater decrease"},
      {"measurement": "pulmonary capillary wedge pressure (PCWP)", "setting": "PH-HFpEF patients; [4]", "result": "improves"},
      {"measurement": "cardiac output", "setting": "PH-HFpEF patients; [5]", "result": "significantly greater increase"},
      {"measurement": "proportion of subjects with an improved sense of well-being", "setting": "PH-HFpEF patients; [5]", "result": "significantly higher proportion"},
      {"measurement": "efficacy", "setting": "[1]", "result": "failed to show efficacy"},
      {"measurement": "half-life", "setting": "[2]", "result": "approximately 1 hour"}
    ]}
  ]
}
